In the SangsterLogP compilation:

settings: not given

SMILES	logP
CCCCOC(NC(=O)c1ccccc1O)C(Cl)(Cl)Cl (stereo not drawn)	4.45
CCNC(=O)c1ccco1	0.61
N#Cc1ccc2[nH]c(N)nc2c1	1.13
BrC(Br)(Br)Br	3.42
COc1ccc([N+](=O)[O-])cc1N	1.47
O=C(O)COc1cc(F)cc(I)c1	2.42
CC1=C(N2CC2)C(=O)c2ccc(CCOC(N)=O)c(N3CC3)c2C1=O	0.16
C#CCN(CC#C)CC#C	1.27
O=Cc1ccccn1	0.44
COC(=O)/C=C/C(=O)OC	0.74
O=C(O)COc1ccc(N2Cc3ccccc3C2=O)cc1	3.58
CCCC(=O)OC	1.29
Nc1ccc(S)cc1	1.31
CCC(C)C(C)(C)C(N)=O (stereo not drawn)	1.81
O/N=C\c1ccc(F)cc1	2.03
CNC1=CC(=O)c2ccccc2C1=O	1.74
O=C1C=CCO1	-0.6
Cc1nc(N(C)C)nc(OC(=O)N(C)C)c1C	1.7
CCN(CC)C(=O)COC(=O)[C@@H](C)c1ccc2cc(OC)ccc2c1	3.32
O=C1C(Cl)C(CCl)CN1c1cccc(C(F)(F)F)c1 (stereo not drawn)	3.36
CCn1cc(C)c(=O)[nH]c1=O	-0.15
Cc1ccnc(=O)[nH]1	-1.45
CC(C)[C@H](NC(=O)[C@H](Cc1ccccc1)NC(=O)OC(C)(C)C)C(=O)O	2.88

SMILES	logP
O=c1c2ccccc2oc2ccccc12	3.39
CCCOCCN(C(=O)CCl)c1c(CC)cccc1CC	4.08
CON=C(Cc1cccnc1)c1ccc(Cl)cc1Cl	2.51
CNC=O	-0.97
CCCCc1c(C)[nH]c(N(C)C)nc1=O	1.9
CCC1=C(N2CC2)C(=O)C(C)=C(N2CC2)C1=O	1.35
CC(C)(C)C1=Nc2ccc(Cl)cc2S(=O)(=O)N1	2.4
C1=C(c2ccccc2)CCCC1	4.53
CC(C)C(=O)C(C)C	1.86
CC(=O)Nc1ncc([N+](=O)[O-])s1	1.3
CNCCN(C)C	-0.2
NS(=O)(=O)Cc1ccccc1	0.13
Cc1ccncn1	0.16
CCCCNC(=S)N(CCCC)CCCC	3.68
c1ccc(Cn2cccn2)cc1	1.78
O=C(O)CCC(=O)c1ccc(N2Cc3ccccc3C2=O)cc1	1.92
O=C1C(Br)=C(N2CC2)C(=O)C(Br)=C1N1CC1	2.03
CNC(=O)Oc1cccc2c1OC(C)(C)O2	1.7
O=C1C(F)=C(N2CC2)C(=O)C(N2CC2)=C1N1CC1	0.14
CCN(CC)S(=O)(=O)c1ccc(OC)c(N)c1	1.7
Cc1c(Cl)cc(-c2ccc(=O)[nH]n2)cc1Cl	3.2
COC(=O)CC(=O)OC	-0.05

same assay, conditions: pH 1.0

SMILES	logD
O=C(O)CCCl	0.41
Cn1nnnc1SCC1=C(C(=O)O)N2C(=O)[C@@H](NC(=O)[C@H](O)c3ccccc3)[C@H]2SC1	0.25

same assay, conditions: pH 4.0

SMILES	logD
CC(=NNc1ccc([N+](=O)[O-])cc1[N+](=O)[O-])C(F)(F)F	3.3
O=[N+]([O-])c1ccc(NN=C(C(F)(F)F)C(F)(F)F)c([N+](=O)[O-])c1	3.8

same assay, conditions: pH 7.0

SMILES	logD
CNc1ncnc2c1ncn2[C@H]1C[C@H](O)[C@@H](CO)O1	-0.19

same assay, conditions: pH 7.4

SMILES	logD
Nc1ncc(Cc2ccccc2O)c(N)n1	0.82
Cn1c([N+](=O)[O-])cnc1-c1ccc(F)cc1	1.83
Cc1cc([N+](=O)[O-])cc2c1NC(=O)CN=C2c1ccccc1	2.33
COC(=O)Cn1c([N+](=O)[O-])cnc1C	0.17
Cc1nc([N+](=O)[O-])cn1COCCS(C)(=O)=O	-0.84
N#Cc1cccc2cccnc12	1.39
CSc1ncc([N+](=O)[O-])n1C	0.94
CCOC(=S)NCCn1c([N+](=O)[O-])cnc1C	1.5
Cn1c(N)nc2c3nccnc3ccc21	1.01
O=C(/C=C/c1ccc([N+](=O)[O-])o1)N/N=C/c1ccc([N+](=O)[O-])o1	2.22

same assay, conditions: pH 12.0

SMILES	logD
Nc1ccc2cc3ccc(N)cc3nc2c1	1.83

same assay, conditions: pH 13.0

SMILES	logD
N=C(N)c1cccc([N+](=O)[O-])c1	0.72
CCNCCNCC	0.21
